This note sets out measurements from US9073855B2, “BCL-2 selective apoptosis-inducing agents for the treatment of cancer and immune diseases” (AbbVie Inc., priority 2008, dated 2015).

The target in one assay is GST-Bcl-XL (Homo sapiens, UniProt Q07817). Put plainly: TR-FRET binding assay, GST-Bcl-XL with F-Bak peptide probe. The conditions noted are these: TR-FRET Binding Affinity. In outline: (§1)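 Displacement of a fluorescein-labelled Bak peptide from the GST-tagged protein was followed by time-resolved FRET with a terbium anti-GST donor after 3 h incubation at room temperature. Inhibition constants were calculated with Wang's equation.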
Sequence of GST-Bcl-XL (Q07817 whole entry): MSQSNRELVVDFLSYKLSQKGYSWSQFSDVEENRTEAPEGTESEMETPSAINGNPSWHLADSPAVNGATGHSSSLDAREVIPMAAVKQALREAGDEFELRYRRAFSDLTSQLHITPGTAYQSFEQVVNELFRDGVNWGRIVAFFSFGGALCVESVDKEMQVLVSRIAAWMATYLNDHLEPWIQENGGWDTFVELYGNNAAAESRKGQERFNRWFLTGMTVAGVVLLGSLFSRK
(Time-resolved FRET reads energy transfer from a long-lived donor to a nearby acceptor.)

The target of the next assay is GST-Bcl-2 (Homo sapiens, UniProt P10415). Nature of the assay: TR-FRET binding assay, GST-Bcl-2 with F-Bak peptide probe. The note with it: for Ki: TR-FRET Binding Affinity; for Binding selectivity ratio (Bcl-XL Ki/Bcl-2 Ki): TR-FRET, Bcl-XL Ki divided by Bcl-2 Ki. In outline:
as §1

Sequence of GST-Bcl-2 (P10415 whole entry): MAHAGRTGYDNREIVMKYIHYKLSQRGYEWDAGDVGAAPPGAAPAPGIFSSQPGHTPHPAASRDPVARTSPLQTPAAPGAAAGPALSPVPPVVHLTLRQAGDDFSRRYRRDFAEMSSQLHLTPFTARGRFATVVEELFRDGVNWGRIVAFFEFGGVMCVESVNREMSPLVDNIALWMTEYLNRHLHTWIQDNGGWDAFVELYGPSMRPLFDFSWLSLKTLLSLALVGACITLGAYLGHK

One may read the Ki as a measure of affinity in units of concentration, obtained from inhibition or displacement. Regarding `CC1(C)CCC(CN2CCN(c3ccc(C(=O)NS(=O)(=O)c4ccc(NCC5CCOC5)c([N+](=O)[O-])c4)c(Oc4cccc5[nH]cnc45)c3)CC2)=C(c2ccc(Cl)cc2)C1` (centres unmarked) [Example 439, 2-(1H-benzimidazol-4-yloxy)-4-(4-{[2-(4-chlorophenyl)-4,4-dimethylcyclohex-1-en-1-yl]methyl}piperazin-1-yl)-N-({3-nitro-4-[(tetrahydrofuran-3-ylmethyl)amino]phenyl}sulfonyl)benzamide], the Ki at GST-Bcl-XL was 15 nM; on GST-Bcl-2, under 0.01 nM.
On the same counts, the results for `CO[C@H]1CC[C@H](CNc2ccc(S(=O)(=O)NC(=O)c3ccc(N4CCN(CC5=C(c6ccc(Cl)cc6)CC(C)(C)CC5)CC4)cc3Oc3cccc4[nH]cnc34)cc2[N+](=O)[O-])CC1` [Example 440, Trans-2-(1H-benzimidazol-4-yloxy)-4-(4-{[2-(4-chlorophenyl)-4,4-dimethylcyclohex-1-en-1-yl]methyl}piperazin-1-yl)-N-[(4-{[(4-methoxycyclohexyl)methyl]amino}-3-nitrophenyl)sulfonyl]benzamide] are 45.5 nM and under 0.01 nM.
`CC1(C)CCC(CN2CCN(c3ccc(C(=O)NS(=O)(=O)c4ccc(NCC5(F)CCOCC5)c([N+](=O)[O-])c4)c(Oc4cccc5[nH]cnc45)c3)CC2)=C(c2ccc(Cl)cc2)C1` [Example 441, 2-(1H-benzimidazol-4-yloxy)-4-(4-{[2-(4-chlorophenyl)-4,4-dimethylcyclohex-1-en-1-yl]methyl}piperazin-1-yl)-N-[(4-{[(4-fluorotetrahydro-2H-pyran-4-yl)methyl]amino}-3-nitrophenyl)sulfonyl]benzamide]: the results for the Ki at GST-Bcl-XL and at GST-Bcl-2 were 24.2 nM and under 0.01 nM, respectively.
For `CC1(C)CCC(CN2CCN(c3ccc(C(=O)NS(=O)(=O)c4cnc(OCC5(F)CCOCC5)c(F)c4)c(Oc4cccc5[nH]cnc45)c3)CC2)=C(c2ccc(Cl)cc2)C1` [Example 442, 2-(1H-benzimidazol-4-yloxy)-4-(4-{[2-(4-chlorophenyl)-4,4-dimethylcyclohex-1-en-1-yl]methyl}piperazin-1-yl)-N-({5-fluoro-6-[(4-fluorotetrahydro-2H-pyran-4-yl)methoxy]pyridin-3-yl}sulfonyl)benzamide] the same measures were 33.6 nM and under 0.01 nM.
For `CC1(C)CCC(CN2CCN(c3ccc(C(=O)NS(=O)(=O)c4cnc(OCC5(F)CCOCC5)c(Cl)c4)c(Oc4cccc5[nH]cnc45)c3)CC2)=C(c2ccc(Cl)cc2)C1` [Example 443, 2-(1H-benzimidazol-4-yloxy)-N-({5-chloro-6-[(4-fluorotetrahydro-2H-pyran-4-yl)methoxy]pyridin-3-yl}sulfonyl)-4-(4-{[2-(4-chlorophenyl)-4,4-dimethylcyclohex-1-en-1-yl]methyl}piperazin-1-yl)benzamide] the same measures were 19.4 nM and under 0.01 nM.
With `CC1(C)CCC(CN2CCN(c3ccc(C(=O)NS(=O)(=O)c4cnc(OC[C@@H]5CCN(C(CF)CF)C5)c(Cl)c4)c(Oc4cccc5[nH]ncc45)c3)CC2)=C(c2ccc(Cl)cc2)C1` [Example 444, N-{[5-chloro-6-({(3R)-1-[2-fluoro-1-(fluoromethyl)ethyl]pyrrolidin-3-yl}methoxy)pyridin-3-yl]sulfonyl}-4-(4-{[2-(4-chlorophenyl)-4,4-dimethylcyclohex-1-en-1-yl]methyl}piperazin-1-yl)-2-(1H-indazol-4-yloxy)benzamide], the inhibition constant (Ki) was 81.5 nM on GST-Bcl-XL and 0.112 nM on GST-Bcl-2. For the same compound, the “Binding selectivity ratio (Bcl-XL Ki/Bcl-2 Ki)” value (shortened to “Binding selectivity ratio”) on GST-Bcl-2 is 727.6.
Regarding `CC1(C)CCC(CN2CCN(c3ccc(C(=O)NS(=O)(=O)c4cnc(OC[C@@H]5CCN(CC(F)F)C5)c(Cl)c4)c(Oc4cccc5[nH]ncc45)c3)CC2)=C(c2ccc(Cl)cc2)C1` [Example 445, N-[(5-chloro-6-{[(3R)-1-(2,2-difluoroethyl)pyrrolidin-3-yl]methoxy}pyridin-3-yl)sulfonyl]-4-(4-{[2-(4-chlorophenyl)-4,4-dimethylcyclohex-1-en-1-yl]methyl}piperazin-1-yl)-2-(1H-indazol-4-yloxy)benzamide], the Ki at GST-Bcl-XL was 13.6 nM. Moreover, on GST-Bcl-2, the Ki was found to be 0.028 nM and the “Binding selectivity ratio” value is given as 484.2.
For `CO[C@H]1CC[C@H](CNc2ccc(S(=O)(=O)NC(=O)c3ccc(N4CCN(CC5=C(c6ccc(Cl)cc6)CC(C)(C)CC5)CC4)cc3Oc3cccc4[nH]ncc34)cc2[N+](=O)[O-])CC1` [Example 446, Trans-4-(4-{[2-(4-chlorophenyl)-4,4-dimethylcyclohex-1-en-1-yl]methyl}piperazin-1-yl)-2-(1H-indazol-4-yloxy)-N-[(4-{[(4-methoxycyclohexyl)methyl]amino}-3-nitrophenyl)sulfonyl]benzamide] the same measures were 19.3 nM, 0.038 nM and 508.4.
As for `CC1(C)CCC(CN2CCN(c3ccc(C(=O)NS(=O)(=O)c4ccc(OCC5COCCO5)c([N+](=O)[O-])c4)c(Oc4cccc5[nH]ncc45)c3)CC2)=C(c2ccc(Cl)cc2)C1` (centres unmarked) [Example 447, 4-(4-{[2-(4-chlorophenyl)-4,4-dimethylcyclohex-1-en-1-yl]methyl}piperazin-1-yl)-N-{[4-(1,4-dioxan-2-ylmethoxy)-3-nitrophenyl]sulfonyl}-2-(1H-indazol-4-yloxy)benzamide], the Ki is 65.8 nM on GST-Bcl-XL and 0.028 nM on GST-Bcl-2.
Consider `CC1(C)CCC(CN2CCN(c3ccc(C(=O)NS(=O)(=O)c4cnc(NC5CCN(C6CC6)CC5)c(Cl)c4)c(Oc4cccc5[nH]ncc45)c3)CC2)=C(c2ccc(Cl)cc2)C1` [Example 448, N-({5-chloro-6-[(1-cyclopropylpiperidin-4-yl)amino]pyridin-3-yl}sulfonyl)-4-(4-{[2-(4-chlorophenyl)-4,4-dimethylcyclohex-1-en-1-yl]methyl}piperazin-1-yl)-2-(1H-indazol-4-yloxy)benzamide], for which the Ki on GST-Bcl-XL came out at 14.6 nM. At GST-Bcl-2, the Ki was 0.005 nM and the “Binding selectivity ratio” value is recorded as 3119.3.
For `CC1(C)CCC(CN2CCN(c3ccc(C(=O)NS(=O)(=O)c4cnc(NC5CCN(C6CC6)CC5)c(Cl)c4)c(Oc4cccc5[nH]cnc45)c3)CC2)=C(c2ccc(Cl)cc2)C1` [Example 449, 2-(1H-benzimidazol-4-yloxy)-N-({5-chloro-6-[(1-cyclopropylpiperidin-4-yl)amino]pyridin-3-yl}sulfonyl)-4-(4-{[2-(4-chlorophenyl)-4,4-dimethylcyclohex-1-en-1-yl]methyl}piperazin-1-yl)benzamide] the same measures were 17.8 nM, 0.24 nM and 74.4.
In the case of `CC1(C)CCC(CN2CCN(c3ccc(C(=O)NS(=O)(=O)c4ccc(NCC5COCCO5)c([N+](=O)[O-])c4)c(Oc4cccc5[nH]cnc45)c3)CC2)=C(c2ccc(Cl)cc2)C1` (centres unmarked) [Example 450, 2-(1H-benzimidazol-4-yloxy)-4-(4-{[2-(4-chlorophenyl)-4,4-dimethylcyclohex-1-en-1-yl]methyl}piperazin-1-yl)-N-({4-[(1,4-dioxan-2-ylmethyl)amino]-3-nitrophenyl}sulfonyl)benzamide], the figures for the Ki on GST-Bcl-XL and at GST-Bcl-2 were 32.1 nM and 0.299 nM, respectively. Also, on GST-Bcl-2, the “Binding selectivity ratio” value is recorded as 107.3.
On the same counts, the results for `CC1(C)CCC(CN2CCN(c3ccc(C(=O)NS(=O)(=O)c4ccc(NC5CCN(C6CC6)CC5)c([N+](=O)[O-])c4)c(Oc4cccc5[nH]cnc45)c3)CC2)=C(c2ccc(Cl)cc2)C1` [Example 451, 2-(1H-benzimidazol-4-yloxy)-4-(4-{[2-(4-chlorophenyl)-4,4-dimethylcyclohex-1-en-1-yl]methyl}piperazin-1-yl)-N-({4-[(1-cyclopropylpiperidin-4-yl)amino]-3-nitrophenyl}sulfonyl)benzamide] are 3.6 nM, under 0.01 nM and 359.9.
On the same counts, the results for `CC1(C)CCC(CN2CCN(c3ccc(C(=O)NS(=O)(=O)c4ccc(N[C@H]5CC[C@H](N6CCOCC6)CC5)c([N+](=O)[O-])c4)c(Oc4cccc5[nH]cnc45)c3)CC2)=C(c2ccc(Cl)cc2)C1` [Example 452, Trans-2-(1H-benzimidazol-4-yloxy)-4-(4-{[2-(4-chlorophenyl)-4,4-dimethylcyclohex-1-en-1-yl]methyl}piperazin-1-yl)-N-({4-[(4-morpholin-4-ylcyclohexyl)amino]-3-nitrophenyl}sulfonyl)benzamide] are 6 nM, under 0.01 nM and 600.4.
As for `CN1CCN(Nc2ccc(S(=O)(=O)NC(=O)c3ccc(N4CCN(CC5=C(c6ccc(Cl)cc6)CC(C)(C)CC5)CC4)cc3Oc3cccc4[nH]cnc34)cc2[N+](=O)[O-])CC1` [Example 453, 2-(1H-benzimidazol-4-yloxy)-4-(4-{[2-(4-chlorophenyl)-4,4-dimethylcyclohex-1-en-1-yl]methyl}piperazin-1-yl)-N-({4-[(4-methylpiperazin-1-yl)amino]-3-nitrophenyl}sulfonyl)benzamide], at GST-Bcl-XL, the Ki was 3.63 nM. Besides, at GST-Bcl-2, the Ki is under 0.01 nM and the “Binding selectivity ratio” value is 363.0.
For the compound `CN1CCC(CNc2ccc(S(=O)(=O)NC(=O)c3ccc(N4CCN(CC5=C(c6ccc(Cl)cc6)CC(C)(C)CC5)CC4)cc3Oc3cccc4[nH]cnc34)cc2[N+](=O)[O-])CC1` [Example 454, 2-(1H-benzimidazol-4-yloxy)-4-(4-{[2-(4-chlorophenyl)-4,4-dimethylcyclohex-1-en-1-yl]methyl}piperazin-1-yl)-N-[(4-{[(1-methylpiperidin-4-yl)methyl]amino}-3-nitrophenyl)sulfonyl]benzamide], the Ki at GST-Bcl-XL came out at 18.9 nM; on GST-Bcl-2, 0.026 nM.
